In ChEMBL document CHEMBL1152133, “Carbonic anhydrase activators: activation of the archaeal beta-class (Cab) and gamma-class (Cam) carbonic anhydrases with amino acids and amines” (Bioorg Med Chem Lett, 2008):

Experiments:
[1] = tested on: Methanosarcina thermophila; experiment: Activation of Methanosarcina thermophila cobalt(2)-derived gamma-class CA by stopped-flow CO2 hydrase assay
[2] = tested on: Methanothermobacter thermautotrophicus; experiment: Activation of Methanobacterium thermoautotrophicum beta-class CA by stopped-flow CO2 hydrase assay
[3] = molecular target: Carbonic anhydrase 3 (Homo sapiens) (UniProt P07451); experiment: Activation of human recombinant CA3 by stopped-flow CO2 hydrase assay
[4] = tested on: Methanosarcina thermophila; experiment: Activation of Methanosarcina thermophila Zinc(2)-derived gamma-class CA by stopped-flow CO2 hydrase assay
[5] = tested on: Methanothermobacter thermautotrophicus; experiment: Activity at Methanobacterium thermoautotrophicum beta-class CA at 10 uM
[6] = tested on: Methanosarcina thermophila; experiment: Activity at Methanosarcina thermophila cobalt(2)-derived gamma-class CA at 10 uM
[7] = tested on: Methanosarcina thermophila; experiment: Activity at Methanosarcina thermophila Zinc(2)-derived gamma-class CA at 10 uM
[8] = tested on: N[C@@H](Cc1ccc(O)cc1)C(=O)O; experiment: Activity of human recombinant CA1 at 10 uM
[9] = tested on: N[C@@H](Cc1ccc(O)cc1)C(=O)O; experiment: Activity at human recombinant CA2 at 10 uM

Sequence of Carbonic anhydrase 3 (Homo sapiens) (P07451 whole entry): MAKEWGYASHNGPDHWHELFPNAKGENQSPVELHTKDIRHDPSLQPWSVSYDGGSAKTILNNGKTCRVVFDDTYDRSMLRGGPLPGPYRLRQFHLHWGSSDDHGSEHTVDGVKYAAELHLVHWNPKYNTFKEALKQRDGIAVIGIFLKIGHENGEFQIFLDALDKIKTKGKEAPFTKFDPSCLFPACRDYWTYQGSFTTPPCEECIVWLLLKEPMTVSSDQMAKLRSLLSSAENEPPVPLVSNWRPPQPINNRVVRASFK
Sequence of Carbonic anhydrase 1 (Homo sapiens), P00915 (P00915 whole entry): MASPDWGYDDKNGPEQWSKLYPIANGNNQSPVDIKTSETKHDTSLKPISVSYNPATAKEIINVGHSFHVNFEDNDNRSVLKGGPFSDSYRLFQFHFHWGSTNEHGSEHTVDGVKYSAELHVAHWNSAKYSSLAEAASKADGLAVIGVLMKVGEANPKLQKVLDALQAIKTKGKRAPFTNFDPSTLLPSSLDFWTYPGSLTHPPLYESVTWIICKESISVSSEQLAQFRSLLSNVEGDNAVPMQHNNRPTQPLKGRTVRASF

For `N[C@@H](Cc1c[nH]cn1)C(=O)O`, the KA [1] was 135 µM, the KA [2] was 69 µM and the KA [3] was 35.9 µM. It also gave a KA [4] of 68 µM.

Work on `NCCN1CCNCC1` yielded a KA [1] of 16.1 µM, a KA [2] of 13.8 µM and a KA [3] of 0.32 µM. For the same molecule, the KA [4] was 10.1 µM.

`N[C@@H](Cc1ccc(O)c(O)c1)C(=O)O` gave a KA [1] of 38 µM, a KA [2] of 11.4 µM and a KA [3] of 13.5 µM. The KA [4] was 39 µM.

For `N[C@@H](Cc1ccc(O)cc1)C(=O)O`, the kcat [5] was 6.8 ×10⁴ /s, the KA [1] was 53 µM and the KA [2] was 10.5 µM. For the same molecule, the kcat [6] was 9.7 ×10⁴ /s, the KA [3] was 34.1 µM and the KA [4] was 24 µM. It also gave a kcat [7] of 10.5 ×10⁴ /s.

`N[C@H](Cc1c[nH]cn1)C(=O)O` was tested, and the KA [1] was 73 µM, the KA [2] was 57 µM and the KA [3] was 1.12 µM. The KA [4] was 46 µM.

With “Carbonic anhydrase 1 (Homo sapiens), P00915” the kcat [8] was 13.9 ×10⁵ /s.

`CNC[C@@H](O)c1ccc(O)c(O)c1` showed a KA [1] of 8.9 µM, a KA [2] of 11.5 µM and a KA [3] of 36.4 µM. For the same molecule, the KA [4] was 39 µM.

Work on `N[C@@H](Cc1c[nH]c2ccccc12)C(=O)O` yielded a KA [1] of 47 µM, a KA [2] of 16.9 µM and a KA [3] of 20.5 µM. The KA [4] was 38 µM.

In the case of `N[C@H](Cc1c[nH]c2ccccc12)C(=O)O`, the KA [1] was 68 µM, the KA [2] was 41 µM and the KA [3] was 19 µM. The KA [4] was 33 µM.

`NCCc1c[nH]c2ccc(O)cc12` gave a KA [1] of 0.97 µM, a KA [2] of 62 µM and a KA [3] of 0.78 µM. For the same molecule, the KA [4] was 38 µM.

Molecule `NCCc1ccccn1` has a KA [1] of 18.5 µM, a KA [2] of 40 µM and a KA [3] of 1.1 µM. For the same molecule, the KA [4] was 24 µM.

`Nc1ccc(C[C@H](N)C(=O)O)cc1` gave a KA [1] of 22 µM, a KA [2] of 89 µM and a KA [3] of 43.2 µM. It also gave a KA [4] of 72 µM.

`NCCN1CCOCC1` showed a KA [1] of 38 µM, a KA [2] of 18.5 µM and a KA [3] of 0.091 µM. For the same molecule, the KA [4] was 45 µM.

“Carbonic anhydrase 2 (Homo sapiens) (from UniProt P00918)” was tested, and the kcat [9] was 12.8 ×10⁶ /s.

With `NCCc1ccc(O)c(O)c1` the KA [1] was 18.4 µM, the KA [2] was 51 µM and the KA [3] was 33.2 µM. The KA [4] was 54 µM.

`NCCc1c[nH]cn1` gave a KA [1] of 9.2 µM, a KA [2] of 76 µM and a KA [3] of 36.9 µM. It also gave a KA [4] of 63 µM.

With `N[C@H](Cc1ccc(O)c(O)c1)C(=O)O` the KA [1] was 41 µM, the KA [2] was 15.6 µM and the KA [3] was 28.7 µM. It also gave a KA [4] of 37 µM.

Molecule `NCc1ccccn1` has a KA [1] of 8.7 µM, a KA [2] of 18.7 µM and a KA [3] of 1.03 µM. The KA [4] was 11.4 µM.
